BigSolDB 2.1

O=C(O)CN(CC(=O)O)CP(=O)(O)O
solubility (mole fraction)
Conditions | 293.15 K | 298.15 K | 303.15 K | 308.15 K | 313.15 K | 318.15 K | 323.15 K | 328.15 K | 333.15 K | 343.15 K
in acetone | 0.000176 | 0.000227 | 0.000273 | 0.000352 | 0.000445 | 0.000543 | – | – | – | –
in ethanol | – | 3.2e-05 | 7.85e-05 | 0.000102 | 0.000139 | 0.000196 | 0.000359 | – | 0.000733 | 0.00176
in ethyl acetate | 0.000528 | 0.000627 | 0.000791 | 0.000906 | 0.00138 | 0.00153 | 0.00176 | – | 0.00263 | 0.00419
in isopropanol | – | 4.94e-05 | 8.19e-05 | 0.000128 | 0.000248 | 0.000344 | 0.000648 | 0.000898 | 0.00131 | 0.00286
in methanol | – | – | 6.27e-05 | 8.57e-05 | 0.000118 | 0.000168 | 0.000243 | 0.000407 | 0.000588 | –
in n-butanol | 0.000113 | 0.000148 | 0.000186 | 0.000246 | 0.000299 | 0.000387 | 0.000831 | – | 0.00159 | 0.00342
in n-hexanol | 0.000966 | 0.00107 | 0.00116 | 0.00137 | 0.00155 | 0.00197 | 0.00233 | – | 0.00337 | 0.00499
in n-pentanol | 0.000125 | 0.000149 | 0.000186 | 0.00023 | 0.000377 | 0.000583 | 0.00105 | – | 0.00195 | 0.00392
in toluene | 0.00035 | 0.000386 | 0.000427 | 0.000645 | 0.00084 | 0.000991 | 0.00157 | – | 0.00248 | 0.0039
